Measured values reported in ChEMBL document CHEMBL3585260, “2-Aminoalkyl nicotinamide derivatives as pure inverse agonists of the ghrelin receptor” (Bioorg Med Chem Lett, 2015).
Calls of active or inactive are those of the source. No cut-off for these calls is given here.

What was measured:
[1] = target: T1, Growth hormone secretagogue receptor type 1 (Homo sapiens, UniProt Q92847); assay: Binding affinity to ghrelin receptor (unknown origin)
[2] = target: T2, Growth hormone secretagogue receptor type 1 (Rattus norvegicus, UniProt O08725); assay: Inverse agonist activity at rat ghrelin receptor expressed in HEK293 cells by NFAT-RE-luciferase reporter gene assay; assay type: cell-based
T2 sequence (O08725 whole entry): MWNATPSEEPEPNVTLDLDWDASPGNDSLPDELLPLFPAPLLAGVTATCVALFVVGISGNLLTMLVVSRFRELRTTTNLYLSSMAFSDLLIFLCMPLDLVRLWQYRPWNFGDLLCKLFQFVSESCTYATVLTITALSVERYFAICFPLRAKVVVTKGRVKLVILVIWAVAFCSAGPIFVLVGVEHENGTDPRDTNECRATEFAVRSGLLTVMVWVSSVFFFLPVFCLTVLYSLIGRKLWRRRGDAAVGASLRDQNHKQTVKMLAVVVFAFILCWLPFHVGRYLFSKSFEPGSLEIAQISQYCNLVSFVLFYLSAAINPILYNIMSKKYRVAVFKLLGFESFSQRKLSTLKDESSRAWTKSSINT

[3] = target: Neurotensin receptor type 2 (Homo sapiens) (UniProt O95665); assay: Inverse agonist activity at NTSR2 (unknown origin) expressed in HEK293 cells assessed as suppression of constitutive receptor activity by NFAT-RE-luciferase reporter gene assay; assay type: cell-based
Sequence of Neurotensin receptor type 2 (Homo sapiens) (O95665 whole entry): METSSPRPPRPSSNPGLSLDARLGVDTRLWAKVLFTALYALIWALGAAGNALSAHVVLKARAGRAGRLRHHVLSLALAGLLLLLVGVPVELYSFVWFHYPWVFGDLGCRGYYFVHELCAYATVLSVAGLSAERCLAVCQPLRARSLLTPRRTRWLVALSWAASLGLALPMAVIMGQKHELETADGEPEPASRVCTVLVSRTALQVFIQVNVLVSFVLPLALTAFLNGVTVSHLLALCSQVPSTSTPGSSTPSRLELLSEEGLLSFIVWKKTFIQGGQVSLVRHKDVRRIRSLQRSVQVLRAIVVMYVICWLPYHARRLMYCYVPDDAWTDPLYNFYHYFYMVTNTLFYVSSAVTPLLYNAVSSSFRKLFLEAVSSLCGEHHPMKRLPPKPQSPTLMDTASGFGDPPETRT

[4] = target: Growth hormone secretagogue receptor type 1 (Rattus norvegicus) (UniProt O08725); assay: Inverse agonist activity at rat ghrelin receptor expressed in HEK293 cells assessed as blockade of constitutive receptor activity b by NFAT-RE-luciferase reporter gene assay; assay type: cell-based
Sequence of Growth hormone secretagogue receptor type 1 (Rattus norvegicus) (O08725 whole entry): as the sequence (O08725 whole entry) above

[5] = Toxicity against HEK293 cells assessed as cell viability at 2 uM by alamar blue staining method; assay type: cell-based; details: human, read-out: Activity
[6] = Toxicity against HEK293 cells assessed as cell viability at 50 uM by alamar blue staining method; assay type: cell-based; details: human, read-out: Activity
[7] = test system: Rattus norvegicus; assay: Inhibition of ghrelin-induced gastric emptying in rat assessed as suppression of gastric motility at 10 mg/kg, sc pre-treated 15 mins before ghrelin challenge; assay type: functional, organism-based; details: Stomach
[8] = target: Cholecystokinin receptor type A (Homo sapiens) (UniProt P32238); assay: Inhibition of radioligand binding at human CCKA at 10 uM
Sequence of Cholecystokinin receptor type A (Homo sapiens) (P32238 whole entry): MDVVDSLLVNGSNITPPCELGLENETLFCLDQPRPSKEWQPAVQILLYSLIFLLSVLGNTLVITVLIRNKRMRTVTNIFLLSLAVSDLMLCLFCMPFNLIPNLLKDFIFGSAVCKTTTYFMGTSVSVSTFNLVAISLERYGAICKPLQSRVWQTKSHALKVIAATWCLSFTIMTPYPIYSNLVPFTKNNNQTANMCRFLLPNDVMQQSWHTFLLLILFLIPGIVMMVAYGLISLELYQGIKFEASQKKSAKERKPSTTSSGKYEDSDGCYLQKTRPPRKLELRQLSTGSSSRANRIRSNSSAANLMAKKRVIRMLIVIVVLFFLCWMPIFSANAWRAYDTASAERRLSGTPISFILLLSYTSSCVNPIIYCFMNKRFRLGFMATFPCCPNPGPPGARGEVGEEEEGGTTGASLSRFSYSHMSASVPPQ

[9] = target: D(1A) dopamine receptor (Homo sapiens) (UniProt P21728); assay: Inhibition of radioligand binding at dopamine D1 receptor (unknown origin) at 10 uM
[10] = test system: Salmonella typhimurium; assay: Mutagenicity in Salmonella typhimurium by Ames test; assay type: toxicity, organism-based; details: salmonella enterica subsp. enterica serovar typhimurium
[11] = Inhibition of ghrelin-induced growth hormone release in rat primary pituitary cells; assay type: functional, cell-based; details: Pituitary gland cell
[12] = target: T1, Growth hormone secretagogue receptor type 1; assay: Antagonist activity against ghrelin receptor (unknown origin) expressed in CHO cells assessed as inhibition of ghrelin-induced calcium response; assay type: functional, cell-based
[13] = test system: Mus musculus; assay: Inhibition of ghrelin-induced food intake in mouse model of high fat diet-induced obesity at 30 mg/kg, sc dosed twice daily for 14 days; assay type: functional, organism-based
[14] = target: Adrenergic receptor alpha-2 (Homo sapiens) (UniProt P08913+P18825+P18089); assay: Inhibition of radioligand binding at alpha-2 adrenergic receptor (unknown origin) at 10 uM
[15] = target: CYP3A4 (Homo sapiens, UniProt P08684); assay: Inhibition of CYP3A4 (unknown origin) at 10 uM; assay type: ADME
Sequence of CYP3A4 (P08684 whole entry): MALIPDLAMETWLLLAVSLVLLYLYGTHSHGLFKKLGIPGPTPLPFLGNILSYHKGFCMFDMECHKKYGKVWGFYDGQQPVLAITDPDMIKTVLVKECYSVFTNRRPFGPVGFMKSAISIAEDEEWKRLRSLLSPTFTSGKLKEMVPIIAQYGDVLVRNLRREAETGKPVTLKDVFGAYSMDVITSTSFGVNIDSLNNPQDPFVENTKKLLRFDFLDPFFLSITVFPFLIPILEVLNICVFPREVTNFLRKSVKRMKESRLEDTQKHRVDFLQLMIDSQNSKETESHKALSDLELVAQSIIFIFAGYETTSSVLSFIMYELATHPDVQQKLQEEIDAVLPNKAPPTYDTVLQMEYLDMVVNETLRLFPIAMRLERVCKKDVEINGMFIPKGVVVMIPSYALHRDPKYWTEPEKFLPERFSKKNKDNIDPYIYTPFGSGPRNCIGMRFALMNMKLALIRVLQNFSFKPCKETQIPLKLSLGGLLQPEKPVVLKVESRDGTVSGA

[16] = test system: Rattus norvegicus; assay: Inhibition of ghrelin-induced growth hormone release in rat at 3 mg/kg, iv pre-treated 5 mins before ghrelin challenge; assay type: functional, organism-based
[17] = target: Sodium-dependent noradrenaline transporter (Homo sapiens) (UniProt P23975); assay: Inhibition of radioligand binding at human NET at 10 uM
Sequence of Sodium-dependent noradrenaline transporter (Homo sapiens) (P23975 whole entry): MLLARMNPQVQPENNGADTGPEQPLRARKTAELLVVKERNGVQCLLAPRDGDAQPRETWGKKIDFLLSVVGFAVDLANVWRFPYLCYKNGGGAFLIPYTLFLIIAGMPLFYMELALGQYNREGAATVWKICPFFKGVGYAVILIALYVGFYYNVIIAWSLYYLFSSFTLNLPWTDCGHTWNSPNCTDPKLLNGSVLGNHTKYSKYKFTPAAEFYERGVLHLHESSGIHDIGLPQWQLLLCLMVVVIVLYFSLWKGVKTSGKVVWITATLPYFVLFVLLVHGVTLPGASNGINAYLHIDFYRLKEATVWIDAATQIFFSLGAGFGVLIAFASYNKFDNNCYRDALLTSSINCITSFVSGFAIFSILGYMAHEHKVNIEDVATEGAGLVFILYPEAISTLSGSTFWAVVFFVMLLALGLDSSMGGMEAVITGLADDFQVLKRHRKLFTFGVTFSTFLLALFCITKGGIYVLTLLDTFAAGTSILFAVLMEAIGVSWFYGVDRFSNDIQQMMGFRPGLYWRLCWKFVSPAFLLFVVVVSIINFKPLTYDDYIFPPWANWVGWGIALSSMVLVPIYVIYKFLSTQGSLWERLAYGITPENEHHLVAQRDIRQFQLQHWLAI

[18] = test system: Rattus norvegicus; assay: Toxicity in rat assessed as induction of sedation at 10 to 30 mg/kg, ip; assay type: organism-based; details: in vivo
[19] = test system: Rattus norvegicus; assay: Inhibition of ghrelin-induced gastric emptying in rat assessed as suppression of gastric content at 10 mg/kg, sc pre-treated 15 mins before ghrelin challenge; assay type: functional, organism-based; details: Stomach
[20] = Bioavailability in mouse at 10 mg/kg, ip administered as single dose; assay type: ADME, organism-based; details: in vivo
[21] = test system: Mus musculus; assay: Toxicity in mouse model of high fat diet-induced obesity assessed as induction of sedation at 10 and 30 mg/kg, sc; assay type: organism-based; details: in vivo
[22] = Total clearance in mouse at 10 mg/kg administered as single dose; assay type: ADME, organism-based; details: in vivo
[23] = Protein binding in human plasma; assay type: ADME, cell-free; details: read-out: PPB
[24] = target: 5-hydroxytryptamine receptor 2C (Homo sapiens) (UniProt P28335); assay: Inhibition of radioligand binding at human 5HT2C receptor at 10 uM
[25] = test system: Mus musculus; assay: Toxicity in mouse model of high fat diet-induced obesity assessed as induction of behavioral effect at 10 and 30 mg/kg, sc; assay type: organism-based; details: in vivo
[26] = Ratio of drug level in brain to plasma in mouse at 10 mg/kg, ip administered as single dose after 1 hr; assay type: ADME, organism-based; details: brain and plasma, read-out: BPR
[27] = Bioavailability in mouse at 10 mg/kg, sc administered as single dose; assay type: ADME, organism-based; details: in vivo
[28] = test system: Liver microsome; assay: Drug metabolism in human liver microsomes; assay type: ADME
[29] = target: Melanocortin receptor 4 (Homo sapiens) (UniProt P32245); assay: Inhibition of radioligand binding at human melanocortin MC4 receptor at 10 uM
Sequence of Melanocortin receptor 4 (Homo sapiens) (P32245 whole entry): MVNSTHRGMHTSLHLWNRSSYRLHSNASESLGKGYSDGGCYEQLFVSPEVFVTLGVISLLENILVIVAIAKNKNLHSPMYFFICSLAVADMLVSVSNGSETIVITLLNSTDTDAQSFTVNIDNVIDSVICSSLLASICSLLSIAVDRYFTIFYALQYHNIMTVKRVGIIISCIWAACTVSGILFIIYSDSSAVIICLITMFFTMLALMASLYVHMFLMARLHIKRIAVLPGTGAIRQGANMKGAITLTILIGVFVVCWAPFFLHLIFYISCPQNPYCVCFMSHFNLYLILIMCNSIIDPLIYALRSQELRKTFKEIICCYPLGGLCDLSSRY

[30] = Oral bioavailability in mouse at 10 mg/kg, administered as single dose; assay type: ADME, organism-based; details: in vivo
[31] = test system: Mus musculus; assay: Inhibition of ghrelin-induced food intake in mouse model of high fat diet-induced obesity at 10 mg/kg, sc dosed twice daily for 14 days; assay type: functional, organism-based
[32] = test system: Rattus norvegicus; assay: Toxicity in rat assessed as induction of behavioral effect at 10 to 30 mg/kg, ip; assay type: organism-based; details: in vivo
[33] = target: Cannabinoid receptor 1 (Homo sapiens) (UniProt P21554); assay: Inhibition of radioligand binding at human CB1 receptor at 10 uM
Sequence of Cannabinoid receptor 1 (Homo sapiens) (P21554 whole entry): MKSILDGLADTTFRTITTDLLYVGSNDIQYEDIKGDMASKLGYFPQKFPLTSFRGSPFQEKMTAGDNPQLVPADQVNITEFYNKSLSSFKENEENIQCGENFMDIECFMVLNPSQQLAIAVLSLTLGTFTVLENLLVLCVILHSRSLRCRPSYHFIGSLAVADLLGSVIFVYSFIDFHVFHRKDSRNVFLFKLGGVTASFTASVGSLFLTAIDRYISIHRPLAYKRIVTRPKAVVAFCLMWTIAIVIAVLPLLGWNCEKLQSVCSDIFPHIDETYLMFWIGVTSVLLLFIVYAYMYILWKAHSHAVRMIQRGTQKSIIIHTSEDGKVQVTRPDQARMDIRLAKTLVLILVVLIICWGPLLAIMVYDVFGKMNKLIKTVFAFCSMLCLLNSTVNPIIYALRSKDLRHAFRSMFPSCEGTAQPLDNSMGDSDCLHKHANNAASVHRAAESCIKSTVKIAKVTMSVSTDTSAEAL

[34] = test system: Rattus norvegicus; assay: Inhibition of ghrelin-induced food intake in rat at 15 to 30 mg/kg, ip after 30 mins; assay type: functional, organism-based
[35] = target: hERG (KCNH2) (Homo sapiens, UniProt Q12809); assay: Inhibition of human ERG at 10 uM
[36] = target: Neuropeptide Y receptor type 1 (Homo sapiens) (UniProt P25929); assay: Inhibition of radioligand binding at human neuropeptide Y1 receptor at 10 uM
Sequence of Neuropeptide Y receptor type 1 (Homo sapiens) (P25929 whole entry): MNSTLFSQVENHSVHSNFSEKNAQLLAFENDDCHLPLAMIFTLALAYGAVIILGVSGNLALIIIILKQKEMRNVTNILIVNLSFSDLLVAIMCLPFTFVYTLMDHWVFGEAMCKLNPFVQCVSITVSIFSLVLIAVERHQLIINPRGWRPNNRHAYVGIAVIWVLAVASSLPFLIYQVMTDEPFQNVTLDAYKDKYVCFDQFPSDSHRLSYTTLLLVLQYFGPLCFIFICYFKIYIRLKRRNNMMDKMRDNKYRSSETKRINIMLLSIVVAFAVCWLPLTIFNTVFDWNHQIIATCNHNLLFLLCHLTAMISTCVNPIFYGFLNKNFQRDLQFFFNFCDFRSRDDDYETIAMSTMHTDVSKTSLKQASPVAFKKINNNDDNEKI

[37] = target: D(2) dopamine receptor (Homo sapiens) (UniProt P14416); assay: Inhibition of radioligand binding at dopamine D2 receptor (unknown origin) at 10 uM
[38] = target: Sodium-dependent serotonin transporter (Homo sapiens) (UniProt P31645); assay: Inhibition of radioligand binding at human SERT at 10 uM
Sequence of Sodium-dependent serotonin transporter (Homo sapiens) (P31645 whole entry, looked up): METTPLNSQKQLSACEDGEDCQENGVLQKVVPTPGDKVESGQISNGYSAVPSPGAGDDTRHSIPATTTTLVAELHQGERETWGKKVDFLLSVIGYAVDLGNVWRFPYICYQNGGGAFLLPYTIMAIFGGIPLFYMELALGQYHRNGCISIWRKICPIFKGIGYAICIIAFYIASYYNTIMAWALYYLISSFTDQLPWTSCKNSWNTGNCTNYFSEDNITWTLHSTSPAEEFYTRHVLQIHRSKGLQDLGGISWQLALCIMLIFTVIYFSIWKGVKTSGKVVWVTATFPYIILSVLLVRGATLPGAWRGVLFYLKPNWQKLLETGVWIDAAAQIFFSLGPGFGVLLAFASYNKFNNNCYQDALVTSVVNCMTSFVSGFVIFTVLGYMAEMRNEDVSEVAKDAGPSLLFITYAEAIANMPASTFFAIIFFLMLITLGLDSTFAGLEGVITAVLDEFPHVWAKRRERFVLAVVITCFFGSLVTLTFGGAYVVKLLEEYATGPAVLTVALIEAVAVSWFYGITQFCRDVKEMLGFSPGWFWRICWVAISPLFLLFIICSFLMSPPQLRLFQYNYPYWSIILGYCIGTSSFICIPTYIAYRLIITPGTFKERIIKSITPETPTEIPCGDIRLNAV

[39] = target: Motilin receptor (Homo sapiens) (UniProt O43193); assay: Inhibition of radioligand binding at human MTLR1 at 10 uM
Sequence of Motilin receptor (Homo sapiens) (O43193 whole entry): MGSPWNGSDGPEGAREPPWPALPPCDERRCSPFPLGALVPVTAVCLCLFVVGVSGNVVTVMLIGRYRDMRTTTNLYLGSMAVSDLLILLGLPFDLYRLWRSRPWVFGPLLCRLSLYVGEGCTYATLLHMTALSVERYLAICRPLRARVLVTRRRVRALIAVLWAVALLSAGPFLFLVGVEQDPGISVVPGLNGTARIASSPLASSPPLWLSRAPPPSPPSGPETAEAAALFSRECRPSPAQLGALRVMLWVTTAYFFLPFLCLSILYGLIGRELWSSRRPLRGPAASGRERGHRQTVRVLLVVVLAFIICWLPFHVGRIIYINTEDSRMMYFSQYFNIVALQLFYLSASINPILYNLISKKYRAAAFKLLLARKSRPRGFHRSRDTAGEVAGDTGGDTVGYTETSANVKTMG

[40] = target: T2, Growth hormone secretagogue receptor type 1; assay: Inverse agonist activity at rat ghrelin receptor by inositol phosphate turnover assay; assay type: functional
[41] = target: T2, Growth hormone secretagogue receptor type 1; assay: Inverse agonist activity at rat ghrelin receptor expressed in HEK293 cells by inositol phosphate turnover assay; assay type: functional, cell-based
[42] = test system: HEK293; assay: Toxicity against HEK293 cells assessed as cell viability at >10 uM by alamar blue staining method; assay type: cell-based; details: human
[43] = test system: HEK293; assay: Toxicity against HEK293 cells assessed as cell viability up to 10 uM by alamar blue staining method; assay type: cell-based; details: human

T1 sequence (Q92847 whole entry): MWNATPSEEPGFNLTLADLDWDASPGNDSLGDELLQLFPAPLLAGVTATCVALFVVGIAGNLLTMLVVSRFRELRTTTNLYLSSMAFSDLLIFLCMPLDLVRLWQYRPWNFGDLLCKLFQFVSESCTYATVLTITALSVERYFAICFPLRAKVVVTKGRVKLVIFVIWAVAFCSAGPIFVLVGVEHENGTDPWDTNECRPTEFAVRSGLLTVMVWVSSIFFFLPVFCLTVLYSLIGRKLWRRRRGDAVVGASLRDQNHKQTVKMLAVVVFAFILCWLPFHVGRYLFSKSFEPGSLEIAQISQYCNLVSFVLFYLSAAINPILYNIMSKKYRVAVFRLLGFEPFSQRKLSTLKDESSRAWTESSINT

## CCn1cc(-c2cnc(NCc3ccc4c(c3)OCO4)c(C(=O)NC[C@@H]3COc4ccccc4O3)c2)cn1
[1]
  IC50: 180 nM
[2]
  IC50: 5500 nM
[3]
  Activity: inactive
[4]
  Efficacy: > 95%

## CCCn1cc(-c2cnc(NCc3ccc4sccc4c3)c(C(=O)NCC3COc4ccccc4O3)c2)cn1 (racemic)
[5]
  viability at 2 µM: 101%
[1]
  IC50: 84 nM
[2]
  IC50: 400 nM
[6]
  viability at 50 µM: 92%
[3]
  Activity: inactive
[4]
  Efficacy: > 95%

## CCCn1cc(-c2cnc(NCc3ccc4occc4c3)c(C(=O)NCC3COc4ccccc4O3)c2)cn1 (stereo not drawn)
[1]
  IC50: 150 nM
[2]
  IC50: 720 nM
[3]
  Activity: inactive
[4]
  Efficacy: > 95%

## O=C(NCC1COc2ccccc2O1)c1cc(-c2ccnc(Cl)c2)cnc1NCc1ccc2c(c1)OCC2 (racemic)
[1]
  IC50: 6.9 nM
[2]
  IC50: 390 nM
[3]
  Activity: inactive
[4]
  Efficacy: > 95%

## CC(=O)N1[C@@H]2CC[C@H]1C=C(c1cnc(NCc3ccc4c(c3)OCC4)c(C(=O)NC[C@H]3COc4ccccc4O3)c1)C2 (mixture of isomers)
[7]
  inhibition: Active
[8]
  inhibition: 0%
[9]
  inhibition: 5.6%
[10]
  Activity: Non-toxic
[11]
  IC50: 13 nM
[1]
  IC50: 0.96 nM
[12]
  IC50: 31 nM
[13]
  inhibition: Active
[14]
  inhibition: 12.6%
[15]
  inhibition at 10 µM: 26%
[16]
  inhibition: Active
[17]
  inhibition: 0%
[18]
  Activity: Non-toxic
[19]
  inhibition: Active
[2]
  IC50: 47 nM
[20]
  bioavailability: 83.2%
[21]
  Activity: Non-toxic
[22]
  clearance: 68.2 mL/min/kg
[23]
  fraction unbound: 0.01
[24]
  inhibition: 7.1%
[25]
  Activity: Non-toxic
[26]
  Kp at 1 h: 0.005
[27]
  bioavailability: 99.1%
[28]
  Drug metabolism: 302 pmol/min/mg
[29]
  inhibition: 2.4%
[30]
  bioavailability: 0.64%
[31]
  inhibition: Active
[32]
  Activity: Non-toxic
[33]
  inhibition: 0%
[3]
  Activity: inactive
[34]
  inhibition: Active
[35]
  inhibition at 10 µM: 36%
[36]
  inhibition: 1%
[37]
  inhibition: 7.1%
[4]
  Efficacy: > 95%
[38]
  inhibition: 0%
[39]
  inhibition: 18.8%

## O=C(NC[C@H]1COc2ccccc2O1)c1cc(N2CCOCC2)cnc1NCc1ccc2c(c1)OCO2
[1]
  IC50: 47 nM
[2]
  IC50: 2000 nM
[3]
  Activity: inactive
[4]
  Efficacy: > 95%

## CCCn1cc(-c2cnc(NCc3ccc4c(c3)OCC4)c(C(=O)NCC3COc4ccccc4O3)c2)cn1 (racemic)
[1]
  IC50: 11 nM
[2]
  IC50: 140 nM
[3]
  Activity: inactive
[4]
  Efficacy: > 95%

## CCCn1cc(-c2cnc(NCc3ccc4ncsc4c3)c(C(=O)NCC3COc4ccccc4O3)c2)cn1 (stereo not drawn)
[1]
  IC50: 260 nM
[2]
  IC50: 900 nM
[3]
  Activity: inactive
[4]
  Efficacy: > 95%

## CCCn1cc(-c2cnc(NCc3ccc4c(c3)OCO4)c(C(=O)NCC3COc4ccccc4O3)c2)cn1 (stereo not drawn)
[5]
  viability at 2 µM: 85%
[1]
  IC50: 36 nM
[2]
  IC50: 170 nM
[6]
  viability at 50 µM: 69%
[3]
  Activity: inactive
[4]
  Efficacy: > 95%

## H-RPKPFQWFWLL-NH2
[40]
  IC50: 5.2 nM
[2]
  IC50: 250 nM
[41]
  IC50: 146 nM

## CC(=O)N1CC=C(c2cnc(NCc3ccc4c(c3)OCO4)c(C(=O)NC[C@H]3COc4ccccc4O3)c2)CC1
[1]
  IC50: 42 nM
[2]
  IC50: 2500 nM
[3]
  Activity: inactive
[4]
  Efficacy: > 95%

## CCn1cc(-c2cnc(NCc3ccc4c(c3)OCO4)c(C(=O)NC[C@H]3COc4ccccc4O3)c2)cn1
[1]
  IC50: 24 nM
[2]
  IC50: 110 nM
[3]
  Activity: inactive
[4]
  Efficacy: > 95%

## O=C(NC[C@H]1COc2ccccc2O1)c1cc(N2C[C@H]3CC[C@@H](C2)O3)cnc1NCc1ccc2c(c1)OCO2
[1]
  IC50: 5.4 nM
[2]
  IC50: 560 nM
[3]
  Activity: inactive
[4]
  Efficacy: > 95%

## CC(C)N1[C@@H]2CC[C@H]1C=C(c1cnc(NCc3ccc4c(c3)OCC4)c(C(=O)NC[C@H]3COc4ccccc4O3)c1)C2 (mixture of isomers)
[42]
  Activity: Toxic
[43]
  Activity: Toxic
[1]
  IC50: 0.23 nM
[2]
  IC50: 4.1 nM
[3]
  Activity: inactive
[4]
  Efficacy: > 95%

## C[C@@H]1CN(c2cnc(NCc3ccc4c(c3)OCC4)c(C(=O)NC[C@H]3COc4ccccc4O3)c2)C[C@H](C)O1
[1]
  IC50: 7.2 nM
[2]
  IC50: 350 nM
[3]
  Activity: inactive
[4]
  Efficacy: > 95%
